{"source": "patent US20250144187A1", "about": "“COMBINATION OF HYDROLASES AND ANTI-MICROORGANISM DRUGS AND USES THEREOF” (CENTRE FOR EYE AND VISION RESEARCH LIMITED, priority 2023, published 2025)", "key": {"[1]": {"test_system": "MRSE", "test": "High-throughput screening of 4989 compounds with human lysozyme", "format": "cell-based, Staphylococcus epidermis", "details": "for MRSE Inhibition ratio (%): compound 2.5 μM + 1 mg/ml lysozyme relative to compound only"}, "[2]": {"test_system": "MRSA", "test": "ATP, NADH and pyruvate levels, cefdinir/lysozyme", "format": "cell-based, Staphylococcus aureus", "details": "1 hour", "experimental": "12) ATP, NADH and pyruvate levels. According to the described method [Liu Y et al., Adv Sci 7, 1902227 (2020)], mid-log-phase MRSA with an OD600 of 0.4 to 0.6 was treated with lysozyme, cefdinir or their combination at different concentrations. Those without any treatment served as control group. After 1 hour incubation at 37° C. bacteria with similar load (according to OD600, 1 ml bacteria were collected if the OD600 was 1) were collected, washed by cold PBS for 3 times. […] Here, 20 μl of each supernatant were added each well of white 96-well plate, in which each well had been pre-reactivated by 100 μl of ATP test solution (Beyotime. Co. Ltd, China), followed by luminometer measurement. To analyze the NAD^+/NADH ratio [Xue C et al., Front Pharmacol 12, 6000296 (2021)], half of lysis supernatants were frozen at −20° C. immediately and the rest half were firstly heated at 60° C. for 30 minutes in PCR machine to decompose NAD^+ if had, Next, these heated supernatants were further centrifuged at 18,000 g at 4° C. for 20 minutes to collect their supernatants. […] After 30 minutes incubation in the prevention of light, orange formazan was observed and then the absorbance at 450 nm was recorded. […] By recording the absorbance at 520 nm, the pyruvate level in each sample was figured out according to the standard formula. […]"}, "[3]": {"test_system": "MRSA", "test": "Mutation frequency and prevention concentration analysis, tedizolid phosphate/lysozyme"}, "[4]": {"test_system": "MRSA and MRSE biofilm", "test": "Biofilm crystal violet assay, tedizolid phosphate/lysozyme", "format": "cell-based", "details": "tedizolid phosphate + 0.5 mg/ml lysozyme", "experimental": "4) Biofilm assays. According to previously described method [Thappeta, K. R. et al., ACS Infect. Dis. 6, 1228-1237(2020); Merritt, J. H. et al., Curr. Protoc. Microbiol. Chapter 1, Unit 1B.1 (2005); O'Toole, G. A. et al., J, Vis. Exp. 47, 2437 (2011)], biofilm was assessed by using an adherence assay on 96-well tissue culture plates. Briefly, tedizolid phosphate at final concentration of 0.3 μg/ml was added into bacterial suspensions (1×10^6 CFU/ml, in LB medium) in the absence or presence of 0.5 mg/ml lysozyme. LB medium with or without bacteria served as positive or negative control group, respectively. After overnight incubation at 37° C., the bacterial suspension was removed, and well was gently washed twice with sterile PBS to remove exclusively non-adherent bacteria. The adherent biofilm was fixed by using 95% methanol at 60° C. for 15 minutes. Then, biofilm was stained with 1% Crystal violet (100 μl/well) at 37° C. for 15 minutes, Ater that, all wells were gently washed with PBS to remove redundant crystal violet. Finally, the dye was solubilized with […] of 95% ethanol per well at 37° C. for 3 minutes. The optical density at 590 nm of solution in each well was measured using a micro-plate reader. Herein, strong biofilm, weak biofilm and no biofilm were defined as “[…]”, “ODnegative control<ODsample<2ODnegative control” and “ODsample≤ODnegative control”. […]"}, "[5]": {"test_system": "MRSA-infected skin wound", "test": "Rat skin infection model, tedizolid phosphate/lysozyme", "format": "in vivo, Sprague Dawley (SD) rats", "details": "combination therapy", "experimental": "19) Skin infection model. […] Except 3 rats in uninfected group, other 12 rats were infected by 5×10^11 CFUs of mid-log phase MRSA from our own collection. Briefly, all rats were firstly pec-depilated by using 10% Na2S to get an uncovered back area of 4 cm×4 cm before 24 hours for the anesthetization on rats. Then, the skin of anesthetized rat was removed until fascial region under sterile condition, followed by spraying 5.0×10^11 CFUs of mid-log phase MRSA on wound (3 cm×3 cm). Bacterial suspensions were collected by below-described method [Zhang. […] Specifically, mid-log phase MRSA was collected by centrifugation at 4500 g for 15 minutes, washed with PBS for 3 limes and re-suspended in cold PBS to get bacterial suspension with an initial density of about 4.0×10^11 CFU/ml according to pre-experiment. Next, 1.25 ml of bacterial suspension was sprayed onto wound. […] All sterile medical gauzes were 0.2 g/cm^2, and further covered by two layers of sterile gauzes and fixed by sterile tapes. Next, rats were monitored until they were fully awake, and then returned to their cages. After 24 hours infection, these sterile medical gauzes were replaced with new sterile medical gauzes soaking different drugs, i.e., normal saline, tedizolid phosphate (0.167 mg/kg) or lysozyme (0.833 mg/kg), or their combination (0.167 mg tedizolid phosphates/kg rat+0.833 mg lysosyme/kg rat), respectively. Meanwhile, rats in uninfected group were treated with new sterile medical gauzes soaking normal saline. All steps were repeated at 48-, 72-, 96-, 120- and 144-hr post-inoculation. At 168 hours post-inoculation, all rats were sacrificed to collect their wounds. These collected tissues were fixed in 10% formalin for at least 24 hours and embedded in paraffin. Next, about 4-μm sections were analyzed by using the hematoxylin and eosin (H-E) staining kit. […] Meanwhile, this homogenate was also 10-fold gradient-diluted in 96-well plate to figure out the bacterial load in infected wound according to quantitative grown colony after overnight culture. […]"}, "[6]": {"test_system": "MRSA", "test": "TMT proteomics analysis, tedizolid phosphate/lysozyme", "format": "cell-based, Staphylococcus aureus"}, "[7]": {"details": "combination therapy compared with lysozyme alone, 1 hour"}}, "data": [{"smiles": "C=CC1=C(C(=O)O)N2C(=O)[C@@H](NC(=O)/C(=N\\O)c3csc(N)n3)[C@H]2SC1", "note": "[cefdinir, Cefdinir]", "values": [{"measurement": "MRSE Combination", "setting": "[1]; OD600 at 24-hour, compound 2.5 μM + 1 mg/ml lysozyme", "result": 0.0528}, {"measurement": "MRSE Drug only", "setting": "[1]; OD600 at 24-hour, compound 2.5 μM without lysozyme", "result": 0.6206}, {"measurement": "MRSE Inhibition ratio (%)", "setting": "[1]", "result": "above 90%"}, {"measurement": "MRSE Inhibition ratio (%)", "setting": "[1]; listed as Ce ? dinir", "result": 99.68, "unit": "%"}, {"measurement": "increasing ATP level", "setting": "[2]; cefdinir (0.5 μg/ml) + lysozyme (0.5 mg/ml)", "result": 1.5, "unit": "fold"}, {"measurement": "increase in the ratio of NAD+/NADH", "setting": "[2]; cefdinir treatment", "result": 1.3, "unit": "fold"}]}, {"smiles": "Cn1nnc(-c2ccc(-c3ccc(N4C[C@H](COP(=O)(O)O)OC4=O)cc3F)cn2)n1", "note": "[tedizolid phosphate, Tedizolid Phosphate]", "values": [{"measurement": "mutation frequencies", "setting": "[3]; combination with lysozyme", "result": "2×10^−9"}, {"measurement": "prevention concentrations of tedizolid phosphate", "setting": "[3]; combination with lysozyme", "result": "≤ 1", "unit": "µg/mL"}, {"measurement": "mutation frequencies", "setting": "[3]; without combination therapy", "result": "≥ 5×10^−7"}, {"measurement": "prevention concentrations of tedizolid phosphate", "setting": "[3]; without lysozyme", "result": "> 50", "unit": "µg/mL"}, {"measurement": "biofilm formation (absorbance at 590 nm), pre-biofilm stage", "setting": "[4]", "result": "biofilm was eliminated"}, {"measurement": "decrease in the level of IL-6", "setting": "[5]; 7 days", "result": "more than 20%"}, {"measurement": "decrease in the level of ROS", "setting": "[5]; 7 days", "result": "> 70", "unit": "%"}, {"measurement": "reduction of bacterial load in the wound", "setting": "[5]; 168 hours post-inoculation", "result": "> 10^6 fold"}, {"measurement": "level of FtsA", "setting": "[6]; combination therapy", "result": 0.003, "unit": "fold"}, {"measurement": "level of OatA (Q2FV54)", "setting": "[6]; combination therapy", "result": "significant increase"}, {"measurement": "level of SepF", "setting": "[6]; combination therapy", "result": 0.5, "unit": "fold"}, {"measurement": "expression of ornithine carbamoyltransferase (Q5HCR3)", "setting": "[6]; [7]", "result": 0.5, "unit": "fold"}, {"measurement": "level of arginine deiminase (Q5HKU2)", "setting": "[6]; [7]", "result": 3.9, "unit": "fold"}, {"measurement": "level of urease subunit alpha (A5IV71)", "setting": "[6]; [7]", "result": "1,5 fold"}, {"measurement": "phosphoglycerate kinase (Q5HQV3) level", "setting": "[6]; combination therapy, 1 hour", "result": 0.005, "unit": "fold"}, {"measurement": "probable malate:quinone oxidoreductase I (P65421) level", "setting": "[6]; combination therapy, 1 hour", "result": 0.12, "unit": "fold"}]}]}
